Measurements as given in paper PMC6941357, “An in vitro toolbox to accelerate anti-malarial drug discovery and development” (Malaria Journal, 2020).
Like-named read-outs stand apart in the source and are kept apart here. Marks after values point to notes of the source that are not given here.

Experiments:
[1] = Ionization constants by potentiometric titration; format: physicochemical; settings: mean ± SD, n = 3 titrations; for pKa: aqueous solution (DMSO stock diluted 1:10 with water), read-out: Measured pKa
Description: The autotitrator was controlled by Tiamo software (Version 1.3). pH measurements were conducted using a Metrohm LL Micro glass electrode which was calibrated on the day of use with calibration standards at pH 2, 4, 7 and 10. All reagents were standardized (directly or indirectly) against potassium hydrogen phthalate (Sigma-Aldrich, A.C.S. Acidimetric Standard). Titrant solutions were protected from carbon dioxide absorption by flushing with nitrogen before sealing or by the incorporation of a drying tube filled with self-indicating soda lime into the titration reaction vessel set-up.
Aliquots were introduced directly into the titration vessel and diluted 1:10 with water (typical final compound concentration of 0.5 mM).

[2] = test system: human liver microsomes; test: Binding to human liver microsomes via ultracentrifugation; format: in vitro ADME; settings: 0.4 mg/mL protein
Summary of the method: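 Unbound fraction by ultracentrifugation: Cunbound measured in protein-free supernate, Ctotal from spiked tubes held at 37 °C, sampled at start and end to check degradation. Matrix was 0.4 mg/mL human liver microsomal protein, 0.1 M phosphate pH 7.4; matrix-matched analysis against one calibration curve.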

[3] = test system: human liver microsomes; test: in vitro
Summary of the method: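 Compound depletion in human liver microsomes was followed by LC–MS at 2–60 min, with cofactor-free controls. First-order depletion rate constants gave in vitro CLint (µL/min/mg protein), corrected to unbound CLint using measured microsomal fu.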

[4] = test system: human plasma; test: Plasma protein binding via ultracentrifugation (UC); format: in vitro ADME; settings: ultracentrifugation, neat plasma
Summary of the method: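 Pooled human plasma (3–4 donors) spiked and ultracentrifuged; protein-free supernate gave Cunbound, parallel tubes kept at 37 °C gave Ctotal and stability (start vs end). Samples matrix-matched 1:1 with opposite blank and quantified against a common calibration curve; fu SD by error propagation.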

[5] = Plasma protein binding via rapid equilibrium dialysis (RED), 10% plasma; format: in vitro ADME, human; settings: human, 10% pooled plasma (diluted 1:10), pH 7.4, RED, 10% plasma corrected for dilution; for fraction unbound at 24 h: presaturation of device and 24 h dialysis; for fraction unbound at 6 h: 6 h dialysis
Description: (§1) Pooled human plasma (n = 3–4 donors) was obtained by centrifugation of blood (collected by the Australian Red Cross Blood Service, Melbourne, Australia or the Volunteer Blood Donor Registry, Clinical Translation Centre, Walter & Eliza Hall Institute of Medical Research, Parkville, Australia), or sourcing pooled plasma directly from commercial sources (Innovative Research Inc, MI) and stored frozen at − 80 °C.
(§2) Plasma was diluted 1:10 with pH 7.4 phosphate buffer (prepared by mixing 0.1 M sodium dihydrogen phosphate and 0.1 M disodium hydrogen phosphate (both containing 0.04 M NaCl) to pH 7.4) and spiked with compound to achieve a total measured concentration of ~ 1000–3000 ng/mL. Diluted plasma was vortex mixed briefly and aliquots (n = 3–4) were transferred to RED (Thermo Fisher Scientific, Waltham, MA) units that were placed at 37 °C under ambient atmosphere on a plate shaker. […] At the end of the dialysis period, samples were removed from both the donor and dialysate chambers of the RED units. […] Fraction unbound values were calculated for each individual RED unit and the mean and SD calculated for n = 3–4 replicates.
(§3) Briefly, the RED device was exposed for two 30 min periods and one overnight period to fresh solutions of compound prepared in pH 7.4 buffer at approximately 10% of the total dialysis concentration. Following the preincubations, solutions were removed from the RED device and discarded. […] Samples were removed and analysed as described above.
(§4) For binding assessments using 10% plasma, the unbound fraction (fu) in neat plasma was calculated using the average values for Ctotal and Cunbound and Eq.

[6] = test system: Caco-2 cell monolayers; settings: cited from earlier work; for Literature ER: Caco-2, ref [33], [35] of Additional file 1; for Literature Papp: Caco-2 A-B, ref [33]–[35] of Additional file 1; for A–B Papp / B–A Papp: matrix: human plasma, corrected for fu
[7] = Binding in DMEM with 10% FCS via ultracentrifugation; format: in vitro ADME, calf; settings: bovine, DMEM with 10% FCS, pH 7.4
Description: Dulbecco’s Modified Eagle’s Medium (DMEM) containing GlutaMAX-I was purchased from Invitrogen (Thermo Fisher Scientific) and stored at 4 °C. Medium was prepared by adding heat inactivated foetal calf serum (FCS, final 10% v/v), penicillin (final 100 U/mL), streptomycin (final 100 µg/mL) D-glucose (final 4.0 mg/mL) and sodium pyruvate (final 0.1 mg/mL).
An ultracentrifugation method adapted from a previous publication was initially used to assess plasma protein binding and binding in the other media. […] Additional ultracentrifuge tubes containing spiked matrix were maintained at 37 °C, 5% or 10% CO2 or normal atmosphere conditions, with aliquots being taken within 0.5 h of the start and at the end of ultracentrifugation to serve as controls for the assessment of stability and to obtain a measure of the total concentration (Ctotal). Following ultracentrifugation, the pH was checked and an aliquot of protein-free supernate was taken from each ultracentrifuge tube for determination of the unbound concentration (Cunbound).
Total matrix and protein free samples were analysed using a matrix matching approach whereby each sample was mixed in a 1:1 ratio with the opposite blank medium (i.e. blank total matrix or blank protein free buffer). For example, plasma samples were mixed with blank pH 7.4 buffer whereas plasma supernatant samples were mixed with blank plasma. Each of the sample sets were then assayed against a common calibration curve prepared in a 1:1 mixture of total matrix and protein free pH 7.4 buffer. […] The standard deviation for fu was calculated using the propagation of errors approach as described previously. The potential for compound degradation was assessed by comparing the average value for Ctotal at the start and end of the experiment.

[8] = test system: human plasma; test: Plasma protein binding via rapid equilibrium dialysis (RED), 10% plasma; format: in vitro ADME; settings: RED, 10% plasma corrected for dilution, 6 h dialysis
Description: as §1, §2, §3, §4

[9] = human, cited from earlier work

For `CCN(CC)CCCNc1ccnc2cc(Cl)ccc12.Cl.Cl` [AQ-13], the “Measured pKa” value ([1]; basic pKa (B)) was 7.6 ± 0.2 (B), the “Fraction unbound, HLM” value [2] was 0.66 ± 0.048 and the “Unbound CLint” value [3] was < 10.6^c µL/min/mg. For the same compound, the “HLM CLint” value ([3]; human, microsomes) was < 7^b µL/min/mg and the “Fraction unbound, human plasma” value [4] was 0.43 ± 0.022.

For `CO[C@H]1O[C@@H]2O[C@@]3(C)CC[C@H]4[C@H](C)CC[C@@H]([C@H]1C)[C@@]24OO3` [Artemether], the fraction unbound at 24 h [5] was 0.066.

For `C[C@H]1[C@H](N2CCS(=O)(=O)CC2)O[C@@H]2O[C@@]3(C)CC[C@H]4[C@H](C)CC[C@@H]1[C@@]24OO3` [Artemisone], the “Measured pKa” value ([1]; basic pKa (B)) is listed as “no ionizations could be detected”, the “Literature ER” value [6] is listed as 0.8 and the “Literature Papp” value [6] is listed as 59.6 ± 4.2 10-6 cm/sec.

For `C[C@H]1[C@H](OC(=O)CCC(=O)O)O[C@@H]2O[C@@]3(C)CC[C@H]4[C@H](C)CC[C@@H]1[C@@]24OO3` [Artesunate], the fraction unbound at […], 1000 ng/mL [7] is listed as 0.72 ± 0.026, the pKa ([1]; acidic pKa (A)) is listed as 4.7 ± 0.04 and the “Literature ER” value [6] is listed as 1.2.

For `O=C1C(O)=C([C@H]2CC[C@H](c3ccc(Cl)cc3)CC2)C(=O)c2ccccc21` [Atovaquone], the fraction unbound at 24 h [5] is listed as less than 0.0001, the “A–B Papp” value [6] is listed as > 300 10^−6 cm/s and the “B–A Papp” value [6] is listed as > 300 10^−6 cm/s.

With `CC[C@H]1OC(=O)[C@H](C)[C@@H](O[C@H]2C[C@@](C)(OC)[C@@H](O)[C@H](C)O2)[C@H](C)[C@@H](O[C@@H]2O[C@H](C)C[C@H](N(C)C)[C@H]2O)[C@](C)(O)C[C@@H](C)CN(C)[C@H](C)[C@@H](O)[C@]1(C)O` [Azithromycin] the “Fraction unbound, human plasma” value [8] was 0.35 and the fraction unbound at 6 h [5] was 0.34.

`CC1(C)N=C(N)N=C(N)N1c1ccc(Cl)cc1` [Cycloguanil] showed a fraction unbound at […], 1000 ng/mL [7] of 0.94 ± 0.064 and a pKa ([1]; basic pKa (B)) of 11.4 ± 0.3.

Work on `Cc1cc(Nc2ccc(S(F)(F)(F)(F)F)cc2)n2nc(C(C)(F)F)nc2n1` [DSM265] yielded a fraction unbound at 6 h [5] of 0.002, a fraction unbound at 24 h [5] of 0.0018 ± 0.0001 and a fraction unbound at […], 1000 ng/mL [7] of 0.366 ± 0.041. For the same compound, the “Measured pKa” value ([1]; basic pKa (B)) was “no ionizations could be detected”.

`CCNCc1cc(Nc2ccnc3cc(Cl)ccc23)ccc1O` [Desethylamodiaquine] gave a pKa ([1]; basic pKa (B)) of 8.5 ± 0.05.

In the case of `C[C@H]1[C@@H](O)O[C@@H]2O[C@@]3(C)CC[C@H]4[C@H](C)CC[C@@H]1[C@@]24OO3` [Dihydroartemisinin], the half-life ([9]; in vivo, ref Table 10) is given as “approximately 1 h”, the CL/F [9] is given as 272 L/h and the Food effect [9] is given as “no”. The V/F [9] was 385 L and the “Literature Papp” value [6] was 38.6 ± 5.0 10-6 cm/sec.

In the case of `C[C@H]1c2cccc(O)c2C(=O)C2=C(O)[C@]3(O)C(=O)C(C(N)=O)=C(O)[C@@H](N(C)C)[C@@H]3[C@@H](O)[C@@H]21` [Doxycyclin], the fraction unbound at 6 h [5] is reported as 0.23 ± 0.09 and the fraction unbound at […], 1000 ng/mL [7] is reported as 0.44 ± 0.07.

In the case of `CCCCN(CCCC)CCC(O)c1cc2c(Cl)cc(Cl)cc2c2cc(C(F)(F)F)ccc12` (centres unmarked) [Halofantrine], the fraction unbound at 24 h [5] is listed as less than 0.0001, the “A–B Papp” value [6] is listed as > 300 10^−6 cm/s and the “B–A Papp” value [6] is listed as > 300 10^−6 cm/s. The “Unbound CLint” value ([3]; human, 1 µM, pH 7.4) was 13,500 µL/min/mg.

For `C[C@H]1Cc2c([nH]c3cc(Cl)c(F)cc23)[C@@]2(N1)C(=O)Nc1ccc(Cl)cc12` [KAE609], the fraction unbound at 6 h [5] was 0.002, the fraction unbound at 24 h [5] was 0.0016 ± 0.0001 and the pKa ([1]; basic pKa (B)) was 5.1 ± 0.02.
